Measured values reported in publication PMC10300102, “In vivo inhibition of nuclear ACE2 translocation protects against SARS-CoV-2 replication and lung damage through epigenetic imprinting” (Nature Communications, 2023).
Where a SMILES comes first, the peptide text is derived from it. The star is where a group is joined. Myristoyl = CCCCCCCCCCCCCC(=O)*

System: SARS-CoV-2 ORF1ab and host gene expression
Details: hamster, in vivo

CCCCCCCCCCCCCC(=O)N[C@H](C(=O)NCC(=O)N[C@H](C(=O)N[C@@H](CCCNC(=N)N)C(=O)N[C@@H](CC(=O)O)C(=O)N[C@@H](CCCNC(=N)N)C(=O)N[C@@H](CCCCN)C(=O)N[C@@H](CCCCN)C(=O)N[C@@H](CCCCN)C(=O)N[C@@H](CC(N)=O)C(=O)N[C@@H](CCCCN)C(=O)N[C@@H](C)C(=O)N[C@@H](CCCNC(=N)N)C(=O)N[C@@H](CO)C(=O)O)[C@@H](C)CC)[C@@H](C)O [NACE2i] (Myristoyl-TGIRDRKKKNKARS-OH)
FC gene Cyp4v3: 0.2095 | FC gene ORF1ab: -2.2037 | FC gene S: -2.258 | FC, gene 2410004B18Rik: 0.5678 | FC, gene 4932438A13Rik: 0.5459 | FC, gene Acat3: -0.674 | FC, gene Acly: -0.5062 | FC, gene Adnp2: 0.5468 | FC, gene Aen: 0.6316 | FC, gene Aff4: 0.6064 | FC, gene Ahcy: -0.9648 | FC, gene Akap13: 0.5493 | FC, gene Ankrd17: 0.6698 | FC, gene Ap1s1: -0.5707 | FC, gene Ap3d1: 0.5083 | FC, gene Aplnr: 0.5871 | FC, gene Arhgap23: 0.8043 | FC, gene Asph: -0.5094 | FC, gene Atf1: 0.5582 | FC, gene Bbs4: 0.6922 | FC, gene Bnip1: 0.513 | FC, gene Btn1a1: 0.5761 | FC, gene C2: 2.567 | FC, gene Ccdc115: -0.5047 | FC, gene Ccr7: 0.5204 | FC, gene Cdk4: -0.5201 | FC, gene Chd8: 1.187 | FC, gene Chpt1: -0.6745 | FC, gene Ciao2a: -0.5045 | FC, gene Clcn7: 0.7305 | FC, gene Cldn10: -0.6712 | FC, gene Clec2j: -0.5841 | FC, gene Cuedc1: -0.5402 | FC, gene Cyp4a32: 0.9236 | FC, gene Cyth4: 0.5449 | FC, gene D8Ertd738e: -0.5566 | FC, gene Dcps: 0.5089 | FC, gene Ddx3x: 0.6643 | FC, gene Ddx17: -0.6263 | FC, gene Ddx50: 0.5809 | FC, gene Dnajb1: 1.307 | FC, gene Dnajb4: 0.8217 | FC, gene Dusp6: 0.7087 | FC, gene Dusp8: 0.9914 | FC, gene Edem2: -0.5407 | FC, gene Efcab6: -0.6582 | FC, gene Efhc2: 0.6406 | FC, gene Efl1: 0.5009 | FC, gene Egr2: 1.468 | FC, gene Epb41l2: 0.503 | FC, gene Epb41l4b: -0.6555 | FC, gene Epc1: 0.5651 | FC, gene Erfl: 0.7342 | FC, gene Fam210b: -0.5004 | FC, gene Fbxo34: 0.5562 | FC, gene Fer1l4: 0.5763 | FC, gene Fgfr2: -0.6329 | FC, gene Fnip1: 1.067 | FC, gene Foxa1: -0.5875 | FC, gene Foxo4: -0.5985 | FC, gene Foxp1: 0.7638 | FC, gene Frk: -0.5985 | FC, gene Fscn1: 0.6051 | FC, gene Gadd45gip1: -0.6021 | FC, gene Galnt16: 0.5879 | FC, gene Gcdh: -0.6082 | FC, gene Get3: -0.5368 | FC, gene Gm6760: -0.5229 | FC, gene Gm19935: 0.6161 | FC, gene Gm36327: 0.5888 | FC, gene Gpr108: -0.6108 | FC, gene Grcc10: -0.632 | FC, gene Gstm5: -0.5595 | FC, gene Hbs1l: 0.5826 | FC, gene Hcfc2: 0.539 | FC, gene Hddc3: -0.6233 | FC, gene Hes1: 0.7365 | FC, gene Hes7: 0.6772 | FC, gene Hnrnph3: 0.5781 | FC, gene Hspa1a: 3.192 | FC, gene Hspb8: 0.5876 | FC, gene Ints1: -0.5112 | FC, gene Ints6: 0.5796 | FC, gene Irgm2: 0.8053 | FC, gene Itm2c: -0.5859 | FC, gene Josd2: -0.5145 | FC, gene Kcnb2: 0.5599 | FC, gene Kdm2b: 0.8792 | FC, gene Klf2: 0.591 | FC, gene Klf6: 1.611 | FC, gene Krcc1: -0.5435 | FC, gene Ldhb: 0.9545 | FC, gene Lrch4: 0.6982 | FC, gene Mat2b: -0.5576 | FC, gene Mcl1: 0.7457 | FC, gene Mff: -0.5195 | FC, gene Mpnd: -0.5935 | FC, gene Mrgprb13: 0.5244 | FC, gene Mrpl18: -0.5015 | FC, gene Msantd1: 0.7207 | FC, gene Myo6: -0.795 | FC, gene Myoz2: -0.6449 | FC, gene Ndufc2: -0.5355 | FC, gene Nfat5: 0.6106 | FC, gene Nfyc: 0.5405 | FC, gene Nlrp9c: 0.6509 | FC, gene Nr1d1: 0.7307 | FC, gene Nr6a1: 0.5193 | FC, gene Nrg1: 1.2298 | FC, gene ORF1ab_REV: 1.502 | FC, gene Olfr229: 0.6277 | FC, gene Olfr648: 0.5798 | FC, gene Olfr992: 0.5742 | FC, gene Olfr1246: 0.5289 | FC, gene Oser1: 0.5067 | FC, gene Papss2: 0.7496 | FC, gene Parp4: 0.5117 | FC, gene Paxx: 0.5674 | FC, gene Pcdh10: 0.5344 | FC, gene Pcf11: 0.7986 | FC, gene Pga5: 0.5011 | FC, gene Pias3: -0.5192 | FC, gene Pigb: 0.6695 | FC, gene Pllp: -0.5323 | FC, gene Ppargc1a: 2.4524 | FC, gene Ppil3: 0.791 | FC, gene Ppp1r10: 1.995 | FC, gene Ppp2r1a: -0.5051 | FC, gene Prpsap1: -0.5066 | FC, gene Ptprf: -0.5908 | FC, gene Pum1: 0.5225 | FC, gene Rac3: -0.6773 | FC, gene Ranbp3: 0.6534 | FC, gene Rapgef6: 0.5765 | FC, gene Rasgrp2: 0.6502 | FC, gene Rbm39: 0.6181 | FC, gene Rel: 0.5472 | FC, gene Rnd1: 2.009 | FC, gene Rora: 0.5709 | FC, gene Rps6ka4: -0.6146 | FC, gene Rsad1: 0.5304 | FC, gene Rtf2: 0.5373 | FC, gene Rusf1: -0.6909 | FC, gene S: 7.077 | FC, gene Samd11: 0.6285 | FC, gene Sdf4: 0.5035 | FC, gene Sema4f: 1.3449 | FC, gene Serhl: 1.282 | FC, gene Serpinb9f: 0.5421 | FC, gene Serpinf1: 0.5919 | FC, gene Sfpq: 0.8832 | FC, gene Sftpd: -0.8403 | FC, gene Skil: 0.9649 | FC, gene Slc8a2: 0.6877 | FC, gene Slc25a1: -0.8686 | FC, gene Slc25a45: 1.7301 | FC, gene Snrnp70: -0.5232 | FC, gene Socs2: 1.6268 | FC, gene Sqle: -0.5283 | FC, gene St7: 0.6724 | FC, gene Stc1: -0.7739 | FC, gene Sult1a1: -0.5479 | FC, gene Tcp11l2: -0.5998 | FC, gene Tecr: -0.5713 | FC, gene Tmbim6: -0.5766 | FC, gene Tmem35b: 1.27 | FC, gene Tnfrsf12a: 0.714 | FC, gene Tpgs1: -0.5572 | FC, gene Tra2b: 1.01 | FC, gene Tspan12: -0.8782 | FC, gene Ttll8: -0.5897 | FC, gene Twist1: 0.5929 | FC, gene Urah: -0.7905 | FC, gene Vpreb1: 0.5028 | FC, gene Vtcn1: -0.6235 | FC, gene Xpo4: 0.7242 | FC, gene Ybey: 0.5779 | FC, gene Ypel3: -0.854 | FC, gene Zbtb10: 0.9542 | FC, gene Zdhhc18: 0.5354 | FC, gene Zfp68: 0.8041 | NEC, Autophagy: -1.884 | NEC, Biological oxidations: -2.307 | NEC, COPI-mediated anterograde transport: -2.085 | NEC, Cilium Assembly: -1.905 | NEC, ER to Golgi Anterograde Transport: -1.892 | NEC, Macroautophagy: -1.884 | NEC, Organelle biogenesis and maintenance: -2.083 | NEC, The citric acid (TCA) cycle and respiratory electron transport: -2.083 | expression of SARS-CoV-2 ORF1ab: significantly reduced | top 20 genes in the TLR4 pathway: downregulated | viral ORF1ab and S genes in alveoli: significantly downregulated
